Laboratory results from PMC8976073 (Nature Communications, 2022).
Changes are numbered by the printed parent chain.

What was measured:
Experiment in all cases: Competition binding: inhibition of WK(FITC)YMVm binding to FPR2 (wild type and mutants), HEK293F cells
FPR2 [1] = target: T1, FPR2 (Homo sapiens, UniProt P25090, L272W); settings: FPR2 L272W, mean ± SEM
T1 construct: expressed in transfected cells; host or cells: HEK293F cells, pTT5 vector
T1 sequence (P25090 1-351 L272W): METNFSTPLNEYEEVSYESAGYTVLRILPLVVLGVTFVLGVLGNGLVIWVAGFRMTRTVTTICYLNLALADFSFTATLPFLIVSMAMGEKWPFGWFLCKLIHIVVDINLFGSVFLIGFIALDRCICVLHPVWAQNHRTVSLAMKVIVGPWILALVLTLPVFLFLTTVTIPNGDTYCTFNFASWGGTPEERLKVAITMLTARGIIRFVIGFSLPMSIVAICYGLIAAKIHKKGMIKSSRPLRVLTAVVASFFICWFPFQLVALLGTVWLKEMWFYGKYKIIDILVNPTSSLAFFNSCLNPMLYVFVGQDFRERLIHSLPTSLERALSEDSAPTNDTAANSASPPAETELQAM
Procedure: (§1) The genes of wild-type FPR1 and FPR2 and mutants with a Flag tag at the N termini were cloned into pTT5 vector (Invitrogen) and expressed in HEK293F cells (Invitrogen). Cells were harvested 48 h post transfection with 1 μg ml^−1 plasmid. Cell-surface expression of the receptors was measured by mixing 10 μl cells with 15 μl of TBS buffer supplemented with 4% BSA, 20% (v/v) viability-staining solution 7-AAD (Invitrogen, Cat#00-6993-50), and 0.1% (v/v) anti-FLAG M2-FITC antibody (Sigma, Cat#F4049) at 4 °C for 20 min. After incubation, 175 μl of TBS buffer was added and the fluorescent signal was measured using a flow-cytometry reader (Guava easyCyte HT, Millipore). Then, the cells were washed and resuspended to a final concentration of 1 × 10^6 cells per ml in Hanks’ Balanced Salt Solution (HBSS) buffer supplemented with 0.5% bovine serum albumin (BSA) and 20 mM HEPES, pH 7.4.
(§2) The mean fluorescent intensity of each well was then read by the FCM reader. Total binding and nonspecific binding were measured in the absence and presence of the unlabeled ligand (200 μM WKYMVm), respectively. […] Mean fluorescent-intensity values were measured by flow cytometry. Data were analyzed using Prism 8.0 (GraphPad software).

FPR2 [2] = target: T2, FPR2 (Homo sapiens, UniProt P25090, L198W); settings: FPR2 L198W, mean ± SEM
T2 construct: expressed in transfected cells; host or cells: HEK293F cells, pTT5 vector
T2 sequence (P25090 1-351 L198W): T1 sequence (P25090 1-351 L272W) with L198W, W272L
Procedure: as §1, §2

FPR2 [3] = target: T3, FPR2 (Homo sapiens, UniProt P25090, M85K); settings: FPR2 M85K, mean ± SEM
T3 construct: expressed in transfected cells; host or cells: HEK293F cells, pTT5 vector
T3 sequence (P25090 1-351 M85K): T1 sequence (P25090 1-351 L272W) with M85K, W272L
Procedure: as §1, §2

FPR2 [4] = target: T4, FPR2 (Homo sapiens, UniProt P25090, E89G); settings: FPR2 E89G, mean ± SEM
T4 construct: expressed in transfected cells; host or cells: HEK293F cells, pTT5 vector
T4 sequence (P25090 1-351 E89G): T1 sequence (P25090 1-351 L272W) with E89G, W272L
Procedure: as §1, §2

FPR2 [5] = target: T5, FPR2 (Homo sapiens, UniProt P25090, S211L); settings: FPR2 Construct 2, mean ± SEM
T5 construct: expressed in transfected cells; host or cells: HEK293F cells, pTT5 vector
Procedure: as §1, §2

FPR2 [6] = target: T6, FPR2 (Homo sapiens, UniProt P25090, E89A); settings: FPR2 E89A, mean ± SEM
T6 construct: expressed in transfected cells; host or cells: HEK293F cells, pTT5 vector
T6 sequence (P25090 1-351 E89A): T1 sequence (P25090 1-351 L272W) with E89A, W272L
Procedure: as §1, §2

T5 sequence (P25090 with tags, fused parts or gaps S211L): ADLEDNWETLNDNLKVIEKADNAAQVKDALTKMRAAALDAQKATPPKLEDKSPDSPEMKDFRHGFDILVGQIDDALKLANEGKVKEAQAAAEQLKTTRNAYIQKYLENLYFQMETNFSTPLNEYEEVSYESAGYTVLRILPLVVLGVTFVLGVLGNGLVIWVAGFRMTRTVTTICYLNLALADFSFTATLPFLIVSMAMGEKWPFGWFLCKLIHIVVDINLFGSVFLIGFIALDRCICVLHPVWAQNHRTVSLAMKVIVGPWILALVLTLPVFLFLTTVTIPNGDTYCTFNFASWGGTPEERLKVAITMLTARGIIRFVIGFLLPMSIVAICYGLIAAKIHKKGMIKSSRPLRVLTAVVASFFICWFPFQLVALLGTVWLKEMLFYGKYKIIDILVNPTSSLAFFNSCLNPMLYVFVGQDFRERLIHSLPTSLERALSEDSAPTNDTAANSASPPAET

- Ki (FPR2 [1]): 479 nM
- Ki (FPR2 [2]): 646 nM
- Ki (FPR2 [3]): 309 nM
- Ki (FPR2 [4]): 575 nM
- Ki (FPR2 [5]): 525 nM
- Ki (FPR2 [6]): 2240 nM
Compound: CC[C@H](C)[C@H](NC(=O)[C@H](CCC(=O)O)NC(=O)[C@H](CO)NC(=O)[C@@H](NC(=O)[C@H](CC(C)C)NC(=O)[C@H](CC(C)C)NC(=O)[C@H](CC(C)C)NC(=O)[C@H](CC(C)C)NC(=O)[C@H](CS)NC(=O)[C@H](CO)NC(=O)[C@H](Cc1ccccc1)NC(=O)CNC(=O)[C@H](CCCNC(=N)N)NC(=O)[C@@H]1CCCN1C(=O)[C@H](C)NC(=O)[C@H](CCSC)NC=O)[C@@H](C)O)C(=O)N[C@@H](CC(=O)O)C(=O)N[C@@H](CC(C)C)C(=O)N1CCC[C@H]1C(=O)N[C@H](C(=O)N[C@@H](CCCCN)C(=O)N[C@@H](CCCNC(=N)N)C(=O)N[C@@H](CCCNC(=N)N)C(=O)N[C@@H](C)C(=O)O)C(C)C [fHN, N-formyl humanin]
